{
  "source": "paper PMC8842310",
  "about": "(Journal of Medicinal Chemistry, 2022)",
  "test_system": "CDI iCell cardiomyocytes",
  "settings": "geometric mean of the MEC values for beat period, Na+ slope, Na+ amplitude, field duration",
  "data": [
    {"compound": "CCNC(=N)NC(=O)Nc1c(CC)cc(NS(=O)(=O)c2ccccc2)cc1CC", "note": "[5n, N-(3,5-Diethyl-4-(3-(N-ethylcarbamimidoyl)ureido)phenyl)benzenesulfonamide]", "values": [
      {"measurement": "MEC Gmean cardiomyocytes", "value": 8.9, "unit": "µM"}
    ]}
  ]
}
